Measured values: patent US9822069B2, “Urea derivative or pharmacologically acceptable salt thereof” (KYORIN PHARMACEUTICAL CO. LTD., priority 2013, dated 2017)
pEC50: −log10 of the molar value. One block for each compound: values may come before it.

What was measured:
mouse (BALB/c, male) = test: Effect of lipopolysaccharide induction on neutrophilic infiltration in mouse lung; assay type: in vivo; conditions: neutrophil infiltration in BAL fluid, LPS-exposed BALB/c mouse, oral; for inhibition in vivo at 1 mg/kg / inhibition in vivo at 3 mg/kg: 5 h, read-out: SUPPRESSION RATIO
Method: Effect of Lipopolysaccharide Induction on Neutrophilic Infiltration in Mouse Lung A compound to be tested was orally administrated to a mouse (BALB/c, male), and after 30 minutes, the mouse was placed in a plastic container. Lipopolysaccharide (0.3 mg/mL) dissolved in physiological saline was aerosolized with an ultrasonic wave nebulizer (NE-U17, OMRON Corporation), and exposed to the mouse for 10 minutes. After 5 hours, the anesthetized mouse was sacrificed by exsanguination. A cannula was inserted in the respiratory tract and bronchoalveolar lavage (BAL) with 1 mL of 0.85% NaCl liquid containing 0.4% sodium citrate was carried out. This operation was repeated 3 times, to obtain a BAL fluid. The BAL fluid was centrifuged at 4° C. and ×200 g for 5 minutes, and the pellet was suspended in a physiological saline containing 0.1% BSA. The number of white blood cells was counted using Turks solution with a microscope, and the total white blood cell count was calculated. The white blood cells were fixed on a glass slide using Cytospin 3 (Thermo BioAnalysis Japan K. K.). The cells were stained with Diff-Quik (SYSMEX INTERNATIONAL REAGENTS CO., LTD.), and the number thereof was counted with a microscope, and the neutrophil ratio was calculated. The neutrophil ratio was multiplied by the total white blood cell count to calculate the total neutrophil count. An effect of the compound to be tested represents a percentage (%) of suppression ratio relative to the neutrophil count in a control.

human FPRL1 = target: T1, human FPRL1 (Homo sapiens, UniProt P25090); test: Measurement test of agonist activity on human FPRL1 (test of calcium mobilization in cell, HEK293 with human FPRL1 and Gα15 expression vectors); assay type: cell-based; conditions: calcium mobilization in HEK293 cells with human FPRL1 and Gα15 expression vectors
T1 construct: expressed in transfected cells; host or cells: HEK293 (JCRB9068, NIBIO), transient transfection with pCMV-script vectors using Lipofectamine 2000
T1 sequence (P25090 1-351): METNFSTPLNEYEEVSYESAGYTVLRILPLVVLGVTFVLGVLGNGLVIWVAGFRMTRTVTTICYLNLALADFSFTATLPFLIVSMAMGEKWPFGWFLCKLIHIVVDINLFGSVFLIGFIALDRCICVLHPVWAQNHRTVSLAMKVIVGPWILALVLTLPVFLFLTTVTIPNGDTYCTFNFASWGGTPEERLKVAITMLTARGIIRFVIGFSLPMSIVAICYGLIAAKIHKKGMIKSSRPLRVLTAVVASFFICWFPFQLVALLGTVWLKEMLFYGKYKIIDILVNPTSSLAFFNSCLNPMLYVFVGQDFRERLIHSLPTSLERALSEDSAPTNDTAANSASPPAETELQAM
Outline: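 HEK293 transiently co-transfected with human FPRL1 and Gα15, plated 24 h before assay, loaded with Fluo-4 NW dye plus probenecid. Compounds in eight 10-fold dilutions (DMSO stocks 10^−2 to 10^−9 M, then diluted 100-fold in assay buffer); calcium mobilization read on Flexstation for EC50.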

SMILES: COc1ccc([C@@H]2CNC(=O)[C@H]2NC(=O)Nc2ccc(Cl)cc2)cc1 (single isomer, unassigned) [EXAMPLE 1-2, (-)-1-(4-chlorophenyl)-3-[(3S*,4R*)-4-(4-methoxyphenyl)-2-oxopyrrolidin-3-yl]urea]
inhibition in vivo at 1 mg/kg (mouse (BALB/c, male); dose 1 mg/kg): 99.2% | pEC50 (human FPRL1): 10.05

SMILES: COc1cc(F)c([C@@H]2CNC(=O)[C@H]2NC(=O)Nc2ccc(Cl)cc2)c(F)c1 (single isomer, unassigned) [EXAMPLE 1-22, (−)-1-(4-chlorophenyl)-3-[(3S*,4R*)-4-(2,6-difluoro-4-methoxyphenyl)-2-oxopyrrolidin-3-yl]urea]
inhibition in vivo at 1 mg/kg (mouse (BALB/c, male); dose 1 mg/kg): 93.1% | pEC50 (human FPRL1): 9.96

SMILES: COc1ccc([C@@H]2CNC(=O)[C@H]2NC(=O)Nc2ccc(F)cc2)cc1 (single isomer, unassigned) [EXAMPLE 1-1, (−)-1-(4-Fluorophenyl)-3-[(3S*,4R*)-4-(4-methoxyphenyl)-2-oxopyrrolidin-3-yl]urea]
inhibition in vivo at 1 mg/kg (mouse (BALB/c, male); dose 1 mg/kg): 95.1% | pEC50 (human FPRL1): 10.05

SMILES: COc1cc(F)c([C@@H]2CNC(=O)[C@H]2NC(=O)Nc2ccc(F)c(O)c2)c(F)c1 (relative stereo) [Example 1-71, (−)-1-[(3S*,4R*)-4-(2,6-difluoro-4-methoxyphenyl)-2-oxopyrrolidin-3-yl]-3-(4-fluoro-3-hydroxyphenyl)urea]
SUPPRESSION RATIO (%) (mouse (BALB/c, male); dose 3 mg/kg): 79.7% | pEC50 (human FPRL1): 10.05

SMILES: COc1cc(F)c([C@@H]2CNC(=O)[C@H]2NC(=O)Nc2ccc(Cl)c(O)c2)c(F)c1 (relative stereo) [Example 1-72, (−)-1-(4-chloro-3-hydroxyphenyl)-3-[(3S*,4R*)-4-(2,6-difluoro-4-methoxyphenyl)-2-oxopyrrolidin-3-yl]urea]
SUPPRESSION RATIO (%) (mouse (BALB/c, male); dose 3 mg/kg): 93.3% | pEC50 (human FPRL1): 10.30

SMILES: COc1cc(F)c([C@@H]2CNC(=O)[C@H]2NC(=O)Nc2ccc(F)cc2)c(F)c1 (single isomer, unassigned) [EXAMPLE 1-12, (−)-1-[(3S*,4R*)-4-(2,6-difluoro-4-methoxyphenyl)-2-oxopyrrolidin-3-yl]-3-(4-fluorophenyl)urea]
inhibition in vivo at 1 mg/kg (mouse (BALB/c, male); dose 1 mg/kg): 96.8% | pEC50 (human FPRL1): 10.22

SMILES: COc1cc(F)c([C@@H]2CNC(=O)[C@H]2NC(=O)Nc2ccc(C#N)cc2)c(F)c1 (single isomer, unassigned) [EXAMPLE 1-23, (−)-1-(4-cyanophenyl)-3-[(3S*,4R*)-4-(2,6-difluoro-4-methoxyphenyl)-2-oxopyrrolidin-3-yl]urea]
inhibition in vivo at 3 mg/kg (mouse (BALB/c, male); dose 3 mg/kg): 98.9% | pEC50 (human FPRL1): 9.11

SMILES: COc1cc(F)c([C@@H]2CNC(=O)[C@H]2NC(=O)Nc2ccccc2)c(F)c1 (relative stereo) [Example 7-2, (−)-1-[(3S*,4R*)-4-(2,6-difluoro-4-methoxyphenyl)-2-oxopyrrolidin-3-yl]-3-phenylurea]
SUPPRESSION RATIO (%) (mouse (BALB/c, male); dose 1 mg/kg): 87.7% | pEC50 (human FPRL1): 9.35

SMILES: COc1ccc([C@@H]2CNC(=O)C2NC(=O)Nc2ccc(Cl)cc2)cc1 (mixture of isomers) [Example 1-53, (±)-trans-1-(4-chlorophenyl)-3-[4-(4-methoxyphenyl)-2-oxopyrrolidin-3-yl]urea]
inhibition in vivo at 1 mg/kg (mouse (BALB/c, male); dose 1 mg/kg): 78.9% | pEC50 (human FPRL1): 9.74

More lines, main results first:

pEC50 (human FPRL1): 9.07
SMILES: COc1cc(F)c([C@@H]2CNC(=O)[C@H]2NC(=O)Nc2ccc(C)cc2)c(F)c1 (relative stereo) [Example 9-1, (−)-1-[(3S*,4R*)-4-(2,6-Difluoro-4-methoxyphenyl)-2-oxopyrrolidin-3-yl]-3-(p-tolyl)urea]
SUPPRESSION RATIO (%) (mouse (BALB/c, male); dose 3 mg/kg): 57.0%

pEC50 (human FPRL1): 10.40
SMILES: COc1ccc([C@@H]2CN(CCO)C(=O)[C@H]2NC(=O)Nc2ccc(F)cc2)c(F)c1 (single isomer, unassigned) [EXAMPLE 25-1, (−)-1-[(3S*,4R*)-4-(2-Fluoro-4-methoxyphenyl)-1-(2-hydroxyethyl)-2-oxopyrrolidin-3-yl]-3-(4-fluorophenyl)urea]
inhibition in vivo at 3 mg/kg (mouse (BALB/c, male); dose 3 mg/kg): 99.1%

pEC50 (human FPRL1): 10.30
SMILES: CO/N=C1\NC[C@@H](c2c(F)cc(OC)cc2F)[C@@H]1NC(=O)Nc1ccc(F)cc1 (single isomer, unassigned) [EXAMPLE 32-3, (−)-1-[(3S*,4R*,Z)-4-(2,6-difluoro-4-methoxyphenyl)-2-(methoxyimino)pyrrolidin-3-yl]-3-(4-fluorophenyl)urea]
inhibition in vivo at 3 mg/kg (mouse (BALB/c, male); dose 3 mg/kg): 99.1%

pEC50 (human FPRL1): 9.57
SMILES: COc1cc(F)c([C@@H]2CN/C(=N\OCCO)[C@H]2NC(=O)Nc2ccc(C)cc2)c(F)c1 (single isomer, unassigned) [EXAMPLE 32-12, (−)-1-{(3S*,4R*,Z)-4-(2,6-difluoro-4-methoxyphenyl)-2-[(2-hydroxyethoxy)imino]pyrrolidin-3-yl}-3-(p-tolyl)urea]
SUPPRESSION RATIO (%) (mouse (BALB/c, male); dose 1 mg/kg): 96.8%
